Like-named read-outs stand apart in the source and are kept apart here.
Columns and labels:
[1] = test system: LNCaP prostate cancer cells (express AR); conditions: for IC50: read-out: Growth Curve LNCaP
[2] = test system: CV-1 monkey kidney cells (do not express AR); conditions: for IC50: read-out: Growth Curve CV-1
Androgen Receptor (AR) = target: T1, Androgen Receptor (AR) (Rattus norvegicus, UniProt P15207); assay type: binding
T1 sequence (P15207 1-902): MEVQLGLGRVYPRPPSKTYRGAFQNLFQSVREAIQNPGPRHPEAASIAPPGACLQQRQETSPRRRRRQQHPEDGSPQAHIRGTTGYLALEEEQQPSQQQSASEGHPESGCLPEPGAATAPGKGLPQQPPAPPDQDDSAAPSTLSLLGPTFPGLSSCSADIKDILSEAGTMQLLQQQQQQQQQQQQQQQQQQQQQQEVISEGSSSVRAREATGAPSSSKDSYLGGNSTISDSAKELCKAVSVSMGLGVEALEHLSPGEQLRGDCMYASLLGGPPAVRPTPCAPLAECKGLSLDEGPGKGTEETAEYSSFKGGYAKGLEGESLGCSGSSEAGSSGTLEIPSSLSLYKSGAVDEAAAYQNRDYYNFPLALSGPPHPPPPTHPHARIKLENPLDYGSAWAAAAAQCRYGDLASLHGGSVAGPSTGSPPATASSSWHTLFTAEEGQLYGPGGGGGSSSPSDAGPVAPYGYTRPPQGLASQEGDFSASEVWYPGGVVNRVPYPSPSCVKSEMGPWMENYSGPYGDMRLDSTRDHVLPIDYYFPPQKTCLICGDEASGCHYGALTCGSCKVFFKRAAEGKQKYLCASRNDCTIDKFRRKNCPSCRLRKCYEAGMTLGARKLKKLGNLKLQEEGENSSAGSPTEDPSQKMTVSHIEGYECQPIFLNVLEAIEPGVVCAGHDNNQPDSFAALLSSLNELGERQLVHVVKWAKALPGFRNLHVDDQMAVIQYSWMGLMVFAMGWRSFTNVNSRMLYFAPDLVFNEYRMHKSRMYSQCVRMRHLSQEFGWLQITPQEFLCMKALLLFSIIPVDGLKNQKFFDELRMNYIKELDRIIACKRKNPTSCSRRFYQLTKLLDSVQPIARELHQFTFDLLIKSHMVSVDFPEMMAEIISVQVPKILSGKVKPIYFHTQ

[3] = test system: LNCaP prostate cancer cells (express AR)
[4] = test system: LNCaP prostate cancer cells (express AR); assay: cells; conditions: Homo sapiens, 120 h, read-out: Growth Curve LNCaP

SMILES | cytotoxicity / cell growth inhibition in LNCaP cells [1] | IC50 [1] | IC50 [2] | also measured
C[C@](O)(COc1ccc(N(CCCl)CCCl)cc1)C(=O)Nc1ccc(C#N)c(I)c1.Cl [Compound 7] | potent and selective cell growth inhibition effect | 330 nM | 2610 nM | 
OCCN(CCO)c1ccc(O)cc1 [Compound 4] |  |  |  | Ki (nM) (Androgen Receptor (AR)): DNB; cytotoxicity in LNCaP cells [3]: nontoxic
C[C@](O)(COc1ccc(N(CCCl)CCCl)cc1)C(=O)Nc1ccc(C#N)c(C(F)(F)F)c1.Cl [Compound 1] |  | 860 nM | 1940 nM | cytotoxicity in CV-1 cells [2]: cytotoxic; potency in CV-1 cells less than in LNCaP cells [2]: approximately 3.5 fold
C[C@](O)(CS(=O)(=O)c1ccc(OC(=O)N(CCCl)CCCl)cc1)C(=O)Nc1ccc([N+](=O)[O-])c(C(F)(F)F)c1 [Compound 10] |  | 1500 nM | 2600 nM | 
C[C@](O)(COc1ccc(N(CCCl)CCCl)cc1)C(=O)Nc1ccc([N+](=O)[O-])c(C(F)(F)F)c1.Cl [Compound 8] | potent and selective cell growth inhibition effect | 810 nM | 5200 nM | 
C[C@](O)(CSc1ccc(OC(=O)N(CCCl)CCCl)cc1)C(=O)Nc1ccc([N+](=O)[O-])c(C(F)(F)F)c1 [Compound 6] |  | 800 nM | 4650 nM | 
C[C@](O)(COc1ccc(N(CCO)CCO)cc1)C(=O)Nc1ccc(C#N)c(C(F)(F)F)c1 [Compound 2] | not cytotoxic |  |  | max inhibition [1]: Trypan Blue (max 65% inhibition); cytotoxicity in CV-1 cells [2]: not cytotoxic; IC50 [4]: 770 nM

Source: patent publication US20050209320A1 (priority 2003, published 2005)
